According to patent US7273885B2, “Inhibitors of serine proteases, particularly HCV NS3-NS4A protease” (Vertex Pharmaceuticals Incorporated, priority 2002, dated 2007):
pIC50, pKi: −log10 of the molar value. Read-outs that look alike come from different tables or passages of the source. *1 amine or outer side, *2 acyl side, *3 side chain or, on linkers, in order; H or OH if unused. Where a SMILES comes first, the peptide text is derived from it. [ ]: non-standard residue; d: D form. The star is where a group is joined. Oic = O=C(O)[C@@H]1C[C@@H]2CCCC[C@@H]2N1; X2 = CCC[C@H](N[*:1])C(=O)C(=O)[*:2]; Chg = N[C@H](C(=O)O)C1CCCCC1; Tle = CC(C)(C)[C@H](N)C(=O)O; Hiv = CC(C)[C@H](O)C(=O)O; NHcPr = C1CC1N*

How the values were obtained:
[1] = system: Cells containing hepatitis C virus (HCV) replicon; assay: HCV replicon cell assay (Taqman RT-PCR of HCV RNA); assay type: cell-based
Description: HCV Replicon Cell Assay Protocol
Cells containing hepatitis C virus (HCV) replicon were maintained in DMEM containing 10% fetal bovine serum (FBS), 0.25 mg per ml of G418, with appropriate supplements (media A).
On day 1, replicon cell monolayer was treated with a trypsin:EDTA mixture, removed, and then media A was diluted into a final concentration of 100,000 cells per ml wit. 10,000 cells in 100 ul were plated into each well of a 96-well tissue culture plate, and cultured overnight in a tissue culture incubator at 37° C.
On day 2, compounds (in 100% DMSO) were serially diluted into DMEM containing 2% FBS, 0.5% DMSO, with appropriate supplements (media B). The final concentration of DMSO was maintained at 0.5% throughout the dilution series.
Media on the replicon cell monolayer was removed, and then media B containing various concentrations of compounds was added. Media B without any compound was added to other wells as no compound controls.
Cells were incubated with compound or 0.5% DMSO in media B for 48 hours in a tissue culture incubator at 37° C. At the end of the 48-hour incubation, the media was removed, and the replicon cell monolayer was washed once with PBS and stored at −80° C. prior to RNA extraction.
Culture plates with treated replicon cell monolayers were thawed, and a fixed amount of another RNA virus, such as Bovine Viral Diarrhea Virus (BVDV) was added to cells in each well. RNA extraction reagents (such as reagents from RNeasy kits) were added to the cells immediately to avoid degradation of RNA. Total RNA was extracted according the instruction of manufacturer with modification to improve extraction efficiency and consistency. Finally, total cellular RNA, including HCV replicon RNA, was eluted and stored at −80° C. until further processing.
A Taqman real-time RT-PCR quantification assay was set up with two sets of specific primers and probe. One was for HCV and the other was for BVDV. Total RNA extractants from treated HCV replicon cells was added to the PCR reactions for quantification of both HCV and BVDV RNA in the same PCR well. Experimental failure was flagged and rejected based on the level of BVDV RNA in each well. The level of HCV RNA in each well was calculated according to a standard curve run in the same PCR plate. The percentage of inhibition or decrease of HCV RNA level due to compound treatment was calculated using the DMSO or no compound control as 0% of inhibition. The IC50 (concentration at which 50% inhibition of HCV RNA level is observed) was calculated from the titration curve of any given compound.

[2] = target: HCV NS3-NS4A protease (tNS3 with KK4A) (Hepatitis C virus genotype 1a, UniProt P27958); assay: HCV Ki assay (HPLC microbore separation of 5AB substrate and products); assay type: biochemical
Description: HPLC Microbore Method for Separation of 5AB Substrate and Products
• Substrate: • NH2-Glu-Asp-Val-Val-(alpha)Abu-Cys-Ser-Met-Ser-Tyr-COOH
A stock solution of 20 mM 5AB (or concentration of your choice) was made in DMSO w/ 0.2M DTT. This was stored in aliquots at −20 C.
Buffer: 50 mM HEPES, pH 7.8; 20% glycerol; 100 mM NaCl
Total assay volume was 100 μL
The buffer, KK4A, DTT, and tNS3 were combined; distributed 78 μL each into wells of 96 well plate. This was incubated at 30 C for ˜5–10 min.
2.5 μL of appropriate concentration of test compound was dissolved in DMSO (DMSO only for control) and added to each well. This was incubated at room temperature for 15 min.
Initiated reaction by addition of 20 μL of 250 μM 5AB substrate (25 μM concentration is equivalent or slightly lower than the Km for 5AB).
Incubated for 20 min at 30 C.
Terminated reaction by addition of 25 μL of 10% TFA
Transferred 120 μL aliquots to HPLC vials
Separated SMSY product from substrate and KK4A by the following method:
Microbore Separation Method:
Instrumentation: Agilent 1100
• Degasser G1322A • Binary pump G1312A • Autosampler G1313A • Column thermostated chamber G1316A • Diode array detector G1315A Column:
Phenomenex Jupiter; 5 micron C18; 300 angstroms; 150×2 mm; P/O 00F-4053-B0 • Column thermostat: 40 C • Injection volume: 100 μL • Solvent A=HPLC grade water+0.1% TFA • Solvent B=HPLC grade acetonitrile+0.1% TFA
• Stop time: 17 min • Post-run time: 10 min.

[3] = 50% inhibition of HCV RNA level, 48-hour incubation, HCV replicon cells, read-out: IC50

HCV NS3-NS4A protease (tNS3 with KK4A), sequence (P27958 1027-1208): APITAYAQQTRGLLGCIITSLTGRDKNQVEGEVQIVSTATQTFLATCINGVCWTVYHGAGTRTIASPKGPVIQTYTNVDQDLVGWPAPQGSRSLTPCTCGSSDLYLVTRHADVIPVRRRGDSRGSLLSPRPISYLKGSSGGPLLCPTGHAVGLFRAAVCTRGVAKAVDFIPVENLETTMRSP

Structure (SMILES) | pIC50 [1, 3] | pKi [2] | pIC50 ([1]; 48 h)
CCC[C@H](NC(=O)[C@@H]1C[C@@H]2CCCC[C@@H]2N1C(=O)[C@@H](NC(=O)[C@@H](NC(=O)[C@](C)(O)c1ccccc1)C1CCCCC1)C(C)(C)C)C(=O)C(=O)NC1CC1 [Compound 20a] | 6.00 to 6.30 | > 6.30 | 
CCC[C@H](NC(=O)[C@@H]1C[C@@H]2CCCC[C@@H]2N1C(=O)[C@@H](NC(=O)[C@@H](NC(=O)C(=O)Nc1ccccc1)C1CCCCC1)C(C)(C)C)C(=O)C(=O)NC1CC1 [Compound 21a] |  | > 6.30 | > 6.30
CCC[C@H](NC(=O)[C@@H]1C[C@@H]2CCCC[C@@H]2N1C(=O)[C@@H](NC(=O)[C@@H](NC(=O)C1(O)CCCC1)C1CCCCC1)C(C)(C)C)C(=O)C(=O)NC1CC1 [Compound 22a] | 5.30 to 6.00 | 6.00 to 6.30 | 
CCC[C@H](NC(=O)[C@@H]1C[C@@H]2CCCC[C@@H]2N1C(=O)[C@@H](NC(=O)[C@@H](NC(=O)[C@@H](O)C(C)C)C1CCCCC1)C(C)(C)C)C(=O)C(=O)NC1CC1 [Compound 23a] (H-[Hiv][Chg][Tle][Oic][X2]-NHcPr) | 5.30 to 6.00 | > 6.30 | 
CCC[C@H](NC(=O)[C@@H]1C[C@@H]2CCCC[C@@H]2N1C(=O)[C@@H](NC(=O)[C@@H](NC(=O)C(=O)C(C)C)C1CCCCC1)C(C)(C)C)C(=O)C(=O)NC1CC1 [Compound 24a] | 5.30 to 6.00 | > 6.30 | 
CCC[C@H](NC(=O)[C@@H]1C[C@@H]2CCCC[C@@H]2N1C(=O)[C@@H](NC(=O)[C@@H](NC(=O)c1[nH]c(C)c(C)c1C(C)=O)C1CCCCC1)C(C)(C)C)C(=O)C(=O)NC1CC1 [Compound 25a] | > 6.30 | > 6.30 | 
CCC[C@H](NC(=O)[C@@H]1C[C@@H]2CCCC[C@@H]2N1C(=O)[C@@H](NC(=O)[C@@H](NC(=O)c1ccoc1)C1CCCCC1)C(C)(C)C)C(=O)C(=O)NC1CC1 [Compound 26a] | 5.30 to 6.00 | > 6.30 | 
CCC[C@H](NC(=O)[C@@H]1C[C@@H]2CCCC[C@@H]2N1C(=O)[C@@H](NC(=O)[C@@H](NC(=O)c1ccco1)C1CCCCC1)C(C)(C)C)C(=O)C(=O)NC1CC1 [Compound 27a] | 5.30 to 6.00 | > 6.30 | 
CCC[C@H](NC(=O)[C@@H]1C[C@@H]2CCCC[C@@H]2N1C(=O)[C@@H](NC(=O)[C@@H](NC(=O)c1[nH]c(C)c(C(C)=O)c1C)C1CCCCC1)C(C)(C)C)C(=O)C(=O)NC1CC1 [Compound 29a] | 6.00 to 6.30 | > 6.30 | 
CCC[C@H](NC(=O)[C@@H]1C[C@@H]2CCCC[C@@H]2N1C(=O)[C@@H](NC(=O)[C@@H](NC(=O)c1ccccn1)C1CCCCC1)C(C)(C)C)C(=O)C(=O)NC1CC1 [Compound 30a] | 5.30 to 6.00 | 6.00 to 6.30 | 
CCC[C@H](NC(=O)[C@@H]1C[C@@H]2CCCC[C@@H]2N1C(=O)[C@@H](NC(=O)[C@@H](NC(=O)c1cccnc1)C1CCCCC1)C(C)(C)C)C(=O)C(=O)NC1CC1 [Compound 31a] | 5.30 to 6.00 | > 6.30 | 
CCC[C@H](NC(=O)[C@@H]1C[C@@H]2CCCC[C@@H]2N1C(=O)[C@@H](NC(=O)[C@@H](NC(=O)c1ccncc1)C1CCCCC1)C(C)(C)C)C(=O)C(=O)NC1CC1 [Compound 32a] | 5.30 to 6.00 | > 6.30 | 
CCCC(NC(=O)[C@@H]1C[C@@H]2CCCC[C@@H]2N1C(=O)[C@@H](NC(=O)[C@@H](NC(=O)c1[nH]c(C)c(C)c1C(C)=O)C1CCCCC1)C(C)(C)C)C(=O)C(=O)NC1CC1 (some centres unmarked) [Compound 33a] | > 6.30 | > 6.30 | 
CCC[C@H](NC(=O)[C@@H]1C[C@@H]2CCCC[C@@H]2N1C(=O)[C@@H](NC(=O)[C@@H](NC(=O)c1[nH]c(C)c(C(=O)c2ccccc2)c1C#N)C1CCCCC1)C(C)(C)C)C(=O)C(=O)NC1CC1 [Compound 34a] | 5.30 to 6.00 | > 6.30 | 
CCC[C@H](NC(=O)[C@@H]1C[C@@H]2CCCC[C@@H]2N1C(=O)[C@@H](NC(=O)[C@@H](NC(=O)c1cnc2ccccc2n1)C1CCCCC1)C(C)(C)C)C(=O)C(=O)NC1CC1 [Compound 35a] | 5.30 to 6.00 | > 6.30 | 
CCC[C@H](NC(=O)[C@@H]1C[C@@H]2CCCC[C@@H]2N1C(=O)[C@@H](NC(=O)[C@@H](NC(=O)c1ccc2cccnc2n1)C1CCCCC1)C(C)(C)C)C(=O)C(=O)NC1CC1 [Compound 36a] | 5.30 to 6.00 | > 6.30 | 
CCC[C@H](NC(=O)[C@@H]1C[C@@H]2CCCC[C@@H]2N1C(=O)[C@@H](NC(=O)[C@@H](NC(=O)c1cc(C)c(C(C)=O)[nH]1)C1CCCCC1)C(C)(C)C)C(=O)C(=O)NC1CC1 [Compound 37a] | > 6.30 | > 6.30 | 
CCC[C@H](NC(=O)[C@@H]1C[C@@H]2CCCC[C@@H]2N1C(=O)[C@@H](NC(=O)[C@@H](NC(=O)c1[nH]c2ccccc2c1C(C)=O)C1CCCCC1)C(C)(C)C)C(=O)C(=O)NC1CC1 [Compound 39a, 3-Acetyl-1H-indole-2-carboxylic acid (cyclohexyl-{1-[2-(1-cyclopropylaminooxalyl-butylcarbamoyl)-octahydro-indole-1-carbonyl]-2,2-dimethyl-propylcarbamoyl}-methyl)-amide] | > 6.30 | > 6.30 | 
CCC[C@H](NC(=O)[C@@H]1C[C@@H]2CCCC[C@@H]2N1C(=O)[C@@H](NC(=O)[C@@H](NC(=O)c1cc2cc(C(C)=O)ccc2[nH]1)C1CCCCC1)C(C)(C)C)C(=O)C(=O)NC1CC1 [Compound 40a, 5-Acetyl-1H-indole-2-carboxylic acid (cyclohexyl-{1-[2-(1-cyclopropylaminooxalyl-butylcarbamoyl)-octahydro-indole-1-carbonyl]-2,2-dimethyl-propylcarbamoyl}-methyl)-amide] | > 6.30 | > 6.30 | 
CCC[C@@H](NC(=O)[C@@H]1C[C@@H]2CCCC[C@@H]2N1C(=O)[C@@H](NC(=O)[C@@H](NC(=O)c1[nH]c(C)c(C)c1C(C)=O)C1CCCCC1)C(C)(C)C)C(=O)C(=O)NC1CC1 [Compound 41a] | > 6.30 | 5.30 to 6.00 | 
CCC[C@H](NC(=O)[C@@H]1C[C@@H]2CCCC[C@@H]2N1C(=O)[C@@H](NC(=O)[C@@H](NC(=O)c1cc(CC)c(C(C)=O)[nH]1)C1CCCCC1)C(C)(C)C)C(=O)C(=O)NC1CC1 [Compound 42a] | > 6.30 | > 6.30 | 
CCC[C@H](NC(=O)[C@@H]1C[C@@H]2CCCC[C@@H]2N1C(=O)[C@@H](NC(=O)[C@@H](NC(=O)c1cc(Cl)c(Cl)[nH]1)C1CCCCC1)C(C)(C)C)C(=O)C(=O)NC1CC1 [Compound 43a] | > 6.30 | > 6.30 | 
CCC[C@H](NC(=O)[C@@H]1C[C@@H]2CCCC[C@@H]2N1C(=O)[C@@H](NC(=O)[C@@H](NC(=O)c1cc(C(=O)CC)c[nH]1)C1CCCCC1)C(C)(C)C)C(=O)C(=O)NC1CC1 [Compound 44a] | > 6.30 | > 6.30 | 
CC(=O)c1c(C(=O)N[C@H](C(=O)N[C@H](C(=O)N2[C@H](C(=O)NC(CCC(F)(F)F)C(=O)C(=O)NC3CC3)C[C@@H]3CCCC[C@@H]32)C(C)(C)C)C2CCCCC2)[nH]c(C)c1C (some centres unmarked) [Compound 45a] | > 6.30 | > 6.30 | 
CCC[C@H](NC(=O)[C@@H]1C[C@@H]2CCCC[C@@H]2N1C(=O)[C@@H](NC(=O)[C@@H](NC(=O)[C@@H]1Cc2ccccc2N1)C1CCCCC1)C(C)(C)C)C(=O)C(=O)NC1CC1 [Compound 46a] | 5.30 to 6.00 | > 6.30 | 
